# From patent US11865158B2, “Process and composition matter of nanoparticle formulation for systemic treatment of sepsis” (PURDUE RESEARCH FOUNDATION, priority 2019, dated 2024)
# Key:
# LPS-induced sepsis = assay: Therapeutic efficacy in LPS-induced endotoxemia (sepsis) model; type: in vivo, C57BL/6 mice; settings: free PMB at the respective LD50 (20 mg/kg for IP and 5 mg/kg for IV)
# Description: The therapeutic efficacy of D-TZP was tested in a mouse model of sepsis. C57BL/6 male mice were given IP injection of 20 mg/kg LPS, which causes systemic inflammation similar to initial clinical features of sepsis. TZP or D-TZP was administered in three regimens:
# Therapeutic efficacy in LPS-induced endotoxemia model. 6-8 week-old C57BL/6 mice (male and female) were challenged with an intraperitoneal injection of 20 mg/kg LPS solution (5% dextrose) via 20G catheter (Exel International Disposable Safelet I.V.), which causes systemic inflammation similar to initial clinical features of sepsis^17,19. […] A vehicle control (5% dextrose) or an equivalent dose of free PMB were given in the same manner for comparison. […] Buprenorphine (0.05 mg/kg) was injected subcutaneously shortly after the treatment and every 2-12 h as the signs of discomfort were observed. The body temperature was measured with a Pocket Infrared Thermometer (Braintree Scientific, Inc., Braintree, MA) at each observation, and the body weight was recorded at each observation. When an animal was found dead at the time of observation, the time of death was estimated to be in the halfway of the last two observation times. When animals were lethargic and cold at the time of observation, the animals were euthanized by CO2 asphyxiation. The mouse survival was monitored for 2 weeks.
# [1] = test system: LPS-induced NF-kB/AP-1 activation in THP1-XBlue-MD2-CD14 cells; assay: In vitro anti-LPS activity, SEAP reporter assay, LPS added simultaneously with treatment; type: cell-based, human; settings: 10 ng/mL LPS, free PMB at 150 μg/mL
# Description: To investigate if D-TZP can neutralize LPS, a reporter cell line responding to LPS was incubated with LPS and free PMB or D-TZP's (with different amounts of PMB). THP1-XBlue-MD2-CD14, derived from the human monocytic THP-1 cell line, overexpresses MD2 and CD14 to amplify the response to TLR4 agonist LPS. Color change of the Quanti-Blue reagent (NF-kB/AP-1-inducible secreted embryonic alkaline phosphatase (SEAP) reporter protein) reflects NF-kB/AP-1 activation due to LPS. LPS-induced SEAP production was measured at 620 nm. The reporter cells with 10 ng/mL of LPS expressed a high level of SEAP as compared to non-challenged cells. […] A supernatant was obtained from each mixture to separate unbound LPS and added to THP1-XBlue-MD2-CD14 cells.
# In vitro anti-LPS activity. Five microliters of LPS ([…]) was mixed with 15 μL of free PMB, D-TZP, or TZP at different concentrations in a flat-bottom 96-well plate. THP1-XBlue-MD2-CD14 cell suspension (10^5 cells in 180 μL) was then added to the mixtures. After 24 h incubation, cells were centrifugated at 233 rcf for 5 min. Twenty microliters of the cell medium was mixed with the Quanti-Blue reagent. After 2 h incubation, the color was measured at 620 nm by a Spectra Max M3 microplate reader (Molecular Devices, Sunnyvale, CA). […] The medium was analyzed in the same manner as above.
# THP-1 monocytes = assay: Cytotoxicity by propidium iodide staining and flow cytometry; type: cell-based, human; settings: equivalent to 50-150 μg/mL PMB, 24 h
# Description: As a cationic polypeptide, PMB is known to be effective in neutralizing LPS as early as in 1967, but its systemic application is hampered by dose-limiting nephro- and neurotoxicity. PMB manifests the toxicity via the increased membrane permeability, resulting in increased influx of ions and water and subsequent cell swelling and lysis. To test if the toxicity can be reduced by supplying PMB as a NP-bound form, THP-1 monocytes or J774a.1 macrophages were incubated with D-TZP or free PMB at a concentration equivalent to 50-150 μg/mL PMB for 24 h, stained with propidium iodide (PI), which penetrates damaged cell membrane but not intact membrane, and analyzed with flow cytometry. […] Substantial reduction of membrane damage is attributable to the surface-bound ZWC, which provides a negatively charged cloud beyond the remit of PMB due to the large size, attenuating direct exposure of PMB to cell membrane.
# Cytotoxicity of PMB and D-TZP. Cytotoxic concentration range of free PMB was first determined with THP1-XBlue-MD2-CD14 cells by the MTT assay. […] The PI fluorescence of 10,000 cells was measured with the BD Accuri C6 flow cytometer (BD Biosciences, San Jose, CA) via the FL-2 detector. Nanoparticles and cell debris were excluded by gating, but all cell population (dead or alive) was analyzed. […]
substance,measurement,setting,value
polymyxin B [PMB],protection of challenged animals,LPS-induced sepsis,did not protect the challenged animals
same,LPS-induced SEAP production,[1],reduced the SEAP production
same,PI fluorescence (membrane damage),THP-1 monocytes,dose-dependent PI fluorescence signal
